Experiments:
MLKL [1] = target: T1, MLKL (Homo sapiens, UniProt Q8NB16); assay: Measurement of binding affinity with MLKL receptor (competitive binding assay, Kd); design: made in house; host or cells: HEK 293 cell line (T7 phage in E. coli BL21-derived host is also described)
T1 sequence (Q8NB16 1-471): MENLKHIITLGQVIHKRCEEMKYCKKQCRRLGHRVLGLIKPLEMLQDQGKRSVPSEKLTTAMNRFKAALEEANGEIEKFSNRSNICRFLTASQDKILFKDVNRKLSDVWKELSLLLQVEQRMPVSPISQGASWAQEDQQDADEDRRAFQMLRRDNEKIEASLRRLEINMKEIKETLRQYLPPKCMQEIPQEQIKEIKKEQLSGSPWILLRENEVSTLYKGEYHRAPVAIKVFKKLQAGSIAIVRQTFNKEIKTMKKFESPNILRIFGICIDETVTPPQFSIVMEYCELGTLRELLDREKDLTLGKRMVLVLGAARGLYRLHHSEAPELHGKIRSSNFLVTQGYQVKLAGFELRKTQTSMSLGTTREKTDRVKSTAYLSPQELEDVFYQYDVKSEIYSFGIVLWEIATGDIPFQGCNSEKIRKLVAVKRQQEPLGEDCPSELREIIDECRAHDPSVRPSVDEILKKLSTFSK
Summary of the method: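 Competition binding of kinase tagged with DNA for qPCR detection, expressed in HEK 293 cells, against immobilized ligand on beads. Final DMSO 0.9%. Kd derived from kinase amount in eluates measured by qPCR.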

FADD−/− Jurkat cells = assay: Necroptosis inhibition assay, TNF-α-induced necroptosis (CellTiter-Glo 2.0); assay type: cell-based, human; conditions: TNF-α 15 ng/mL, FADD−/− Jurkat cells; for Necroptosis inhibition assay (Rescue %) 1 μM: compound 1 μM; for Necroptosis inhibition assay (Rescue %) 10 μM: compound 10 μM
Summary of the method: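 Cmpd 0.1/1/10 μM final, 30 min RT preincubation; TNF-α 15 ng/mL final; 20–24 h, 37° C, 5% CO2. Readout: ATP luminescence (reagent 1:3 in PBS), 0.5 s/well. Cytotoxicity and % necroptosis inhibition calculated from signal.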

MLKL [2] = target: T1, MLKL; assay: MLKL degradation assay in HepG2 cell line (western blot); assay type: cell-based; design: endogenous in cells; host or cells: HepG2 or HaCaT; conditions: cell line not given; for Degradation assay (Degradation %) 1 μM: compound 1 μM; for Degradation assay (Degradation %) 10 μM: compound 10 μM
Summary of the method: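 HepG2, cpd final 1 or 10 μM, 20-24 h, 37 °C/5% CO2; RIPA lysis, BCA-normalized, 10-15 μg/lane SDS-PAGE, western blot, ECL read-out.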

Row | Compound | Kd (MLKL [1]) | Necroptosis inhibition assay (Rescue %) 1 μM (FADD−/− Jurkat cells) | Necroptosis inhibition assay (Rescue %) 10 μM (FADD−/− Jurkat cells) | Degradation assay (Degradation %) 1 μM (MLKL [2]) | Degradation assay (Degradation %) 10 μM (MLKL [2])
1 | COc1ccc(C(=O)N2CCN(CCCN3CCC(n4cc(-c5cnc(N)c(C(=O)O[C@@H](C(=O)Nc6ccc(F)cc6)c6ccccc6)n5)cn4)CC3)CC2)cc1N1CCC(=O)NC1=O [TDH-447, (R)-2-((4-fluorophenyl)amino)-2-oxo-1-phenylethyl 3-amino-6-(1-(1-(3-(4-(3-(2,4-dioxotetrahydropyrimidin-1(2H)-yl)-4-methoxybenzoyl)piperazin-1-yl)propyl)piperidin-4-yl)-1H-pyrazol-4-yl)pyrazine-2-carboxylate] | 0.17 nM | 33.69% | 14.38% | 60.39% | 14.41%
2 | COc1ccc(C(=O)N2CCC(OCCN3CCC(n4cc(-c5cnc(N)c(C(=O)O[C@@H](C(=O)Nc6ccc(F)cc6)c6ccccc6)n5)cn4)CC3)CC2)cc1N1CCC(=O)NC1=O [TDH-448, (R)-2-((4-fluorophenyl)amino)-2-oxo-1-phenylethyl 3-amino-6-(1-(1-(2-((1-(3-(2,4-dioxotetrahydropyrimidin-1(2H)-yl)-4-methoxybenzoyl)piperidin-4-yl)oxy)ethyl)piperidin-4-yl)-1H-pyrazol-4-yl)pyrazine-2-carboxylate] | 0.38 nM | 27.91% | 20.07% | 48.26% | 7.49%
3 | Nc1ncc(-c2cnn(C3CCN(CCc4cn(C5CCN(C(=O)COc6ccc7c(c6)C(=O)N(C6CCC(=O)NC6=O)C7=O)CC5)nn4)CC3)c2)nc1C(=O)O[C@@H](C(=O)Nc1ccc(F)cc1)c1ccccc1 (stereo partly drawn) [TDH-451, (R)-2-((4-fluorophenyl)amino)-2-oxo-1-phenylethyl 3-amino-6-(1-(1-(2-(1-(1-(2-((2-(2,6-dioxopiperidin-3-yl)-1,3-dioxoisoindolin-5-yl)oxy)acetyl)piperidin-4-yl)-1H-1,2,3-triazol-4-yl)ethyl)piperidin-4-yl)-1H-pyrazol-4-yl)pyrazine-2-carboxylate] | 0.54 nM | 19.55% | 17.67% | 64.37% | 50.39%
4 | Nc1ncc(-c2cnn(C3CCN(CCc4cn(C5CCN(C(=O)CNc6ccc7c(c6)C(=O)N(C6CCC(=O)NC6=O)C7=O)CC5)nn4)CC3)c2)nc1C(=O)O[C@@H](C(=O)Nc1ccc(F)cc1)c1ccccc1 (stereo partly drawn) [TDH-452, (R)-2-((4-fluorophenyl)amino)-2-oxo-1-phenylethyl 3-amino-6-(1-(1-(2-(1-(1-((2-(2,6-dioxopiperidin-3-yl)-1,3-dioxoisoindolin-5-yl)glycyl)piperidin-4-yl)-1H-1,2,3-triazol-4-yl)ethyl)piperidin-4-yl)-1H-pyrazol-4-yl)pyrazine-2-carboxylate] | 1.8 nM | 38.27% | 26.02% | 61.94% | 52.12%
5 | Nc1ncc(-c2cnn(C3CCN(CCCN4CC5CC4CN5C(=O)COc4ccc5c(c4)C(=O)N(C4CCC(=O)NC4=O)C5=O)CC3)c2)nc1C(=O)O[C@@H](C(=O)Nc1ccc(F)cc1)c1ccccc1 (stereo partly drawn) [TDH-453, (R)-2-((4-fluorophenyl)amino)-2-oxo-1-phenylethyl 3-amino-6-(1-(1-(3-(5-(2-((2-(2,6-dioxopiperidin-3-yl)-1,3-dioxoisoindolin-5-yl)oxy)acetyl)-2,5-diazabicyclo[2.2.1]heptan-2-yl)propyl)piperidin-4-yl)-1H-pyrazol-4-yl)pyrazine-2-carboxylate] | 0.64 nM | 51.32% | 49.41% | 74.72% | 92.96%
6 | Nc1ncc(-c2cnn(C3CCN(CCCN4CC5CC4CN5C(=O)CNc4ccc5c(c4)C(=O)N(C4CCC(=O)NC4=O)C5=O)CC3)c2)nc1C(=O)O[C@@H](C(=O)Nc1ccc(F)cc1)c1ccccc1 (stereo partly drawn) [TDH-454, (R)-2-((4-fluorophenyl)amino)-2-oxo-1-phenylethyl 3-amino-6-(1-(1-(3-(5-((2-(2,6-dioxopiperidin-3-yl)-1,3-dioxoisoindolin-5-yl)glycyl)-2,5-diazabicyclo[2.2.1]heptan-2-yl)propyl)piperidin-4-yl)-1H-pyrazol-4-yl)pyrazine-2-carboxylate] | 2 nM | 65.44% | 39.99% | 87.16% | 90.47%
7 | Nc1ncc(-c2cnn(C3CCN(CCCN4CC5CN(C(=O)COc6ccc7c(c6)C(=O)N(C6CCC(=O)NC6=O)C7=O)CC5C4)CC3)c2)nc1C(=O)O[C@@H](C(=O)Nc1ccc(F)cc1)c1ccccc1 (stereo partly drawn) [TDH-466, (R)-2-((4-fluorophenyl)amino)-2-oxo-1-phenylethyl 3-amino-6-(1-(1-(3-(5-(2-((2-(2,6-dioxopiperidin-3-yl)-1,3-dioxoisoindolin-5-yl)oxy)acetyl)hexahydropyrrolo[3,4-c]pyrrol-2(1H)-yl)propyl)piperidin-4-yl)-1H-pyrazol-4-yl)pyrazine-2-carboxylate] | 0.41 nM | 54.2% | 26.69% | 60.76% | 86.28%
8 | Nc1ncc(-c2cnn(C3CCN(CCCN4CC5CN(C(=O)CNc6ccc7c(c6)C(=O)N(C6CCC(=O)NC6=O)C7=O)CC5C4)CC3)c2)nc1C(=O)O[C@@H](C(=O)Nc1ccc(F)cc1)c1ccccc1 (stereo partly drawn) [TDH-467, (R)-2-((4-fluorophenyl)amino)-2-oxo-1-phenylethyl 3-amino-6-(1-(1-(3-(5-((2-(2,6-dioxopiperidin-3-yl)-1,3-dioxoisoindolin-5-yl)glycyl)hexahydropyrrolo[3,4-c]pyrrol-2(1H)-yl)propyl)piperidin-4-yl)-1H-pyrazol-4-yl)pyrazine-2-carboxylate] | 0.5 nM | 54.19% | −9.09% | 93.95% | 86.45%
9 | Nc1ncc(-c2cnn(C3CCN(C4CC5(CCN(CC6CCN(c7ccc8c(c7)C(=O)N(C7CCC(=O)NC7=O)C8=O)CC6)CC5)C4)CC3)c2)nc1C(=O)O[C@@H](C(=O)Nc1ccc(F)cc1)c1ccccc1 (stereo partly drawn) [TDH-472, (R)-2-((4-fluorophenyl)amino)-2-oxo-1-phenylethyl 3-amino-6-(1-(1-(7-((1-(2-(2,6-dioxopiperidin-3-yl)-1,3-dioxoisoindolin-5-yl)piperidin-4-yl)methyl)-7-azaspiro[3.5]nonan-2-yl)piperidin-4-yl)-1H-pyrazol-4-yl)pyrazine-2-carboxylate] | 1.6 nM | 27.45% | 1.07% | 50.63% | 69.94%
10 | Nc1ncc(-c2cnn(C3CCN(CC4CCN(CC5CCN(c6ccc7c(c6)C(=O)N(C6CCC(=O)NC6=O)C7=O)CC5)CC4)CC3)c2)nc1C(=O)O[C@@H](C(=O)Nc1ccc(F)cc1)c1ccccc1 (stereo partly drawn) [TDH-473, (R)-2-((4-fluorophenyl)amino)-2-oxo-1-phenylethyl 3-amino-6-(1-(1-((1-((1-(2-(2,6-dioxopiperidin-3-yl)-1,3-dioxoisoindolin-5-yl)piperidin-4-yl)methyl)piperidin-4-yl)methyl)piperidin-4-yl)-1H-pyrazol-4-yl)pyrazine-2-carboxylate] | 1.7 nM | 28.37% | −13.59% | 63.51% | 73.71%
11 | Nc1ncc(-c2cnn(C3CCN(CCCN4CCN(CC5CCN(c6ccc7c(c6)C(=O)N(C6CCC(=O)NC6=O)C7=O)CC5)CC4)CC3)c2)nc1C(=O)O[C@@H](C(=O)Nc1ccc(F)cc1)c1ccccc1 (stereo partly drawn) [TDH-474, (R)-2-((4-fluorophenyl)amino)-2-oxo-1-phenylethyl 3-amino-6-(1-(1-(3-(4-((1-(2-(2,6-dioxopiperidin-3-yl)-1,3-dioxoisoindolin-5-yl)piperidin-4-yl)methyl)piperazin-1-yl)propyl)piperidin-4-yl)-1H-pyrazol-4-yl)pyrazine-2-carboxylate] | 0.95 nM | 25.61% | 5.98% | 54.33% | 68.31%

Source: patent US20240252488A1 (KOREA RESEARCH INSTITUTE OF CHEMICAL TECHNOLOGY, priority 2020, published 2024)
